In ChEMBL document CHEMBL1201862, “PubChem BioAssay data set” (2004):
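Assay format: 96-well plates, 48-hour exposure. Abbreviation: GI50, concentration required for 50% inhibition of growth.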 Active and inactive are the calls of the source. No stated cut-off is given here; in the data, active = GI50 up to about 1.1 µM and inactive = higher.

Tests used:
Test in all cases: growth of human tumour cells (NCI), 48 h
SK-OV-3 = test system: SK-OV-3
UO-31 = test system: UO-31
MDA-MB-435 = test system: MDA-MB-435
NCI-H226 = test system: NCI-H226
MOLT-4 = test system: MOLT-4
BT-549 = test system: BT-549
U-251 = test system: U-251
OVCAR-3 = test system: OVCAR-3
SNB-75 = test system: SNB-75
LOX IMVI = test system: LOX IMVI
DU-145 = test system: DU-145
KM12 = test system: KM12
A498 = test system: A498
HL-60 = test system: HL-60
TK-10 = test system: TK-10
IGROV-1 = test system: IGROV-1
HT-29 = test system: HT-29
SF-539 = test system: SF-539
NCI-H522 = test system: NCI-H522
HOP-92 = test system: HOP-92

Compound | GI50 (SK-OV-3) | GI50 (UO-31) | GI50 (MDA-MB-435) | GI50 (NCI-H226) | GI50 (MOLT-4) | GI50 (BT-549) | GI50 (U-251) | GI50 (OVCAR-3) | GI50 (SNB-75) | GI50 (LOX IMVI) | GI50 (DU-145) | GI50 (KM12) | GI50 (A498) | GI50 (HL-60) | GI50 (TK-10) | GI50 (IGROV-1) | GI50 (HT-29) | GI50 (SF-539) | GI50 (NCI-H522) | GI50 (HOP-92)
Nc1ccn(C2CC3OCC3O2)c(=O)n1 (stereo not given) | > 100 µM (inactive) | > 100 µM (inactive) | > 100 µM (inactive) | > 100 µM (inactive) | > 100 µM (inactive) | > 100 µM (inactive) | > 100 µM (inactive) | > 100 µM (inactive) | > 100 µM (inactive) | > 100 µM (inactive) | > 100 µM (inactive) | > 100 µM (inactive) | > 100 µM (inactive) | > 100 µM (inactive) | > 100 µM (inactive) | > 100 µM (inactive) | > 100 µM (inactive) | > 100 µM (inactive) | > 100 µM (inactive) | 
Nc1ccc(-c2nc3cc(F)ccc3s2)cc1 | > 94.2 µM (inactive) | > 60 µM (inactive) | > 100 µM (inactive) |  | > 82.2 µM (inactive) | > 100 µM (inactive) | 39.4 µM (inactive) | > 90.2 µM (inactive) | 11.2 µM (inactive) | 45.1 µM (inactive) | 30.5 µM (inactive) | > 68.4 µM (inactive) | 33.5 µM (inactive) | 25.4 µM (inactive) | 30.5 µM (inactive) | 13 µM (inactive) | > 91 µM (inactive) | > 66.1 µM (inactive) | 53.5 µM (inactive) | 23.1 µM (inactive)
O=C1c2cc(Cl)ccc2-n2c(noc2=O)C2CSCN12 (stereo not given) | > 100 µM (inactive) | > 100 µM (inactive) | > 100 µM (inactive) | > 100 µM (inactive) | > 100 µM (inactive) | > 100 µM (inactive) | > 100 µM (inactive) | > 100 µM (inactive) | > 100 µM (inactive) | > 100 µM (inactive) | > 100 µM (inactive) | > 100 µM (inactive) | > 100 µM (inactive) |  | > 100 µM (inactive) | > 100 µM (inactive) | > 100 µM (inactive) |  | > 100 µM (inactive) | 
Cc1ccc(C2=NOC(=O)[C@@H]3CCCC[C@@H]23)cc1 | > 100 µM (inactive) | > 100 µM (inactive) | > 100 µM (inactive) | > 100 µM (inactive) | > 100 µM (inactive) | > 100 µM (inactive) | > 100 µM (inactive) | > 100 µM (inactive) | > 100 µM (inactive) | > 100 µM (inactive) | 27.2 µM (inactive) | > 100 µM (inactive) | > 100 µM (inactive) | > 100 µM (inactive) | > 100 µM (inactive) | > 100 µM (inactive) | > 100 µM (inactive) | > 100 µM (inactive) | > 100 µM (inactive) | 
CC1(C)CC(O)CC(C)(C)N1O [TEMPOL HYDROXYLAMINE] | > 100 µM (inactive) | > 100 µM (inactive) | > 100 µM (inactive) |  | > 100 µM (inactive) | > 100 µM (inactive) |  | 68.1 µM (inactive) | > 100 µM (inactive) |  | > 100 µM (inactive) | > 100 µM (inactive) | > 100 µM (inactive) |  | > 100 µM (inactive) | > 100 µM (inactive) | > 100 µM (inactive) | > 100 µM (inactive) |  | 
O=C(O)c1ccccc1CC1Cc2ccc3c(c2C1=O)CCC3 (stereo not given) | > 100 µM (inactive) | > 100 µM (inactive) | > 100 µM (inactive) | > 100 µM (inactive) | > 100 µM (inactive) | > 100 µM (inactive) | > 100 µM (inactive) | > 100 µM (inactive) | 87.1 µM (inactive) | > 100 µM (inactive) | > 100 µM (inactive) | > 100 µM (inactive) |  | > 100 µM (inactive) | > 100 µM (inactive) | > 100 µM (inactive) | > 100 µM (inactive) | > 100 µM (inactive) | > 100 µM (inactive) | > 100 µM (inactive)
N#CC1C(=O)NC(=O)C(C#N)C1c1ccc(Cl)c(Cl)c1 (stereo not given) | > 100 µM (inactive) | 16.5 µM (inactive) | 22.7 µM (inactive) |  | 26.9 µM (inactive) | 33.3 µM (inactive) | 23.7 µM (inactive) | 24.2 µM (inactive) | 25.2 µM (inactive) | 17.1 µM (inactive) | 37.5 µM (inactive) | 33.7 µM (inactive) |  | 35.4 µM (inactive) | 35.3 µM (inactive) | 18.1 µM (inactive) | 16.7 µM (inactive) | 19.4 µM (inactive) | 15.7 µM (inactive) | 37.4 µM (inactive)
COc1cc(-c2nc3cc(F)ccc3s2)ccc1O | 35.2 µM (inactive) | 34.8 µM (inactive) | > 100 µM (inactive) | 26.4 µM (inactive) | 56.8 µM (inactive) | 20.6 µM (inactive) | 54.1 µM (inactive) | 12.8 µM (inactive) |  | 39.1 µM (inactive) | 82.8 µM (inactive) | 18.6 µM (inactive) | 18.5 µM (inactive) | 41 µM (inactive) | 33.7 µM (inactive) | 10.9 µM (inactive) | 39.3 µM (inactive) | 49.4 µM (inactive) | 19.5 µM (inactive) | 
[N-]=[N+]=NC1(c2ccccc2)C(=O)c2cccc3c4ccccc4n(c23)C1=O (stereo not given) | > 100 µM (inactive) | > 100 µM (inactive) | 27.9 µM (inactive) | > 100 µM (inactive) | 98.4 µM (inactive) | > 100 µM (inactive) | > 100 µM (inactive) | 46.3 µM (inactive) | > 100 µM (inactive) | > 100 µM (inactive) | > 100 µM (inactive) | 53.1 µM (inactive) | > 100 µM (inactive) | < 0.01 µM (active) | > 100 µM (inactive) | > 100 µM (inactive) | 18.4 µM (inactive) | > 100 µM (inactive) | 45.6 µM (inactive) | 
CC(C)OP(=O)(c1ccccc1)c1ccc2c(c1)OCCOCCOCCOCCO2 (stereo not given) | > 100 µM (inactive) | > 100 µM (inactive) | > 100 µM (inactive) | > 100 µM (inactive) | > 100 µM (inactive) | > 100 µM (inactive) |  |  | > 100 µM (inactive) | > 100 µM (inactive) | > 100 µM (inactive) | > 100 µM (inactive) | > 100 µM (inactive) | > 100 µM (inactive) | > 100 µM (inactive) | > 100 µM (inactive) | > 100 µM (inactive) | > 100 µM (inactive) | 84.7 µM (inactive) | 
CCOP(=O)(CC1OC(CO)C(O)C1O)OCC (stereo not given) | > 100 µM (inactive) | > 100 µM (inactive) | > 100 µM (inactive) |  | > 100 µM (inactive) | > 100 µM (inactive) | > 100 µM (inactive) | > 100 µM (inactive) | > 100 µM (inactive) | > 100 µM (inactive) | > 100 µM (inactive) | > 100 µM (inactive) | > 100 µM (inactive) | > 100 µM (inactive) | > 100 µM (inactive) | > 100 µM (inactive) |  | > 100 µM (inactive) | > 100 µM (inactive) | > 100 µM (inactive)
CSCC[C@H]1C(=O)N=C(N)N1C(=O)OCc1ccccc1 |  | 30.8 µM (inactive) | 34 µM (inactive) | 30 µM (inactive) | 18.7 µM (inactive) | 19.8 µM (inactive) | 34.9 µM (inactive) | 38.7 µM (inactive) | 60.7 µM (inactive) | 24.5 µM (inactive) | > 100 µM (inactive) | 42.9 µM (inactive) | 72.9 µM (inactive) | 14.5 µM (inactive) | 37.9 µM (inactive) | 63.7 µM (inactive) | 38.3 µM (inactive) |  | 19.7 µM (inactive) | 
CC(=O)c1c2c(cc3c1CC1(Cc4cc5c(cc4C1=O)CCC5)C3)CCC2 (stereo not given) | > 87.7 µM (inactive) | 36.9 µM (inactive) | 48.9 µM (inactive) | 34.3 µM (inactive) | 4.95 µM (inactive) | 27 µM (inactive) | > 77.1 µM (inactive) | > 62.4 µM (inactive) | > 78 µM (inactive) | 38.3 µM (inactive) | > 72.3 µM (inactive) | 53.5 µM (inactive) | > 100 µM (inactive) | 7.21 µM (inactive) | > 66.1 µM (inactive) | > 100 µM (inactive) | 54.2 µM (inactive) | > 100 µM (inactive) | 22.2 µM (inactive) | 
c1ccc(-c2c(-c3[nH]c4ccccc4c3-c3ccccc3)[nH]c3ccccc23)cc1 | 8.15 µM (inactive) | 3.68 µM (inactive) | 3.44 µM (inactive) | 11.6 µM (inactive) | 3.35 µM (inactive) | 4.56 µM (inactive) | 4.52 µM (inactive) | 2.3 µM (inactive) | 4.15 µM (inactive) | 1.92 µM (inactive) | 3.38 µM (inactive) | 3.03 µM (inactive) |  | 3.06 µM (inactive) | 10.6 µM (inactive) | 4.75 µM (inactive) | 3.45 µM (inactive) | 7.96 µM (inactive) | 3.18 µM (inactive) | 3.21 µM (inactive)
O=C1CCC2(c3ccc(Cl)cc3)Nc3ncncc3N12 (stereo not given) | > 10 µM (inactive) | > 10 µM (inactive) | > 10 µM (inactive) | > 10 µM (inactive) | > 10 µM (inactive) | > 10 µM (inactive) | > 10 µM (inactive) | > 10 µM (inactive) | > 10 µM (inactive) | > 10 µM (inactive) | > 10 µM (inactive) | > 10 µM (inactive) |  |  | > 10 µM (inactive) | > 10 µM (inactive) | > 10 µM (inactive) | > 10 µM (inactive) | > 10 µM (inactive) | > 10 µM (inactive)
Oc1ccc(-c2c3c(nc4c2CCc2ccc(Br)cc2-4)-c2cc(Br)ccc2CC3)cc1 | 16.5 µM (inactive) | 18.7 µM (inactive) | 20 µM (inactive) | 23.3 µM (inactive) |  | 24 µM (inactive) | 17.5 µM (inactive) | 15.1 µM (inactive) | 23.9 µM (inactive) |  | 25.1 µM (inactive) | 19.7 µM (inactive) | 23.4 µM (inactive) |  | 21.1 µM (inactive) | 17 µM (inactive) |  |  | 25.6 µM (inactive) | 16 µM (inactive)
